# Measurements from US9926271B2, “Octahydrocyclopentapyrroles, their preparation and use” (The Trustees of Columbia University in the City of New York, priority 2013, dated 2018).
# How the values were obtained:
# RBP4 [1] = biological target: T1, RBP4 (Homo sapiens, UniProt P02753); assay: Scintillation proximity RBP4 binding assay (SPA); set-up: Untagged human RBP4 purified from urine of tubular proteinuria patients; purchased Fitzgerald Industries International; host or cells: urine of tubular proteinuria patients; conditions: 10 nM 3H-Retinol, 50 nM biotinylated RBP4
# Procedure: Scintillation Proximity RBP4 Binding Assay
# Untagged human RBP4 purified from urine of tubular proteinuria patients was purchased from Fitzgerald Industries International. It was biotinylated using the EZ-Link Sulfo-NHS-LC-Biotinylation kit from Pierce following the manufacturer's recommendations. Binding experiments were performed in 96-well plates (OptiPlate, PerkinElmer) in a final assay volume of 100 μl per well in SPA buffer (1×PBS, pH 7.4, 1 mM EDTA, 0.1% BSA, 0.5% CHAPS). The reaction mix contained 10 nM ^3H-Retinol (48.7 Ci/mmol; PerkinElmer), 0.3 mg/well Streptavidin-PVT beads, 50 nM biotinylated RBP4 and a test compound. Nonspecific binding was determined in the presence of 20 μM of unlabeled retinol. The reaction mix was assembled in the dark under dim red light. The plates were sealed with clear tape (TopSeal-A: 96-well microplate, PerkinElmer), wrapped in the aluminum foil, and allowed to equilibrate 6 hours at room temperature followed by overnight incubation at +4° C. Radiocounts were measured using a TopCount NXT counter (Packard Instrument Company).
# RBP4-TTR interaction [2] = biological target: T2, RBP4-TTR interaction (Homo sapiens, UniProt P02753); assay: TR-FRET (HTRF) assay for retinol-induced RBP4-TTR interaction; assay type: biochemical; set-up: human RBP4 fragment (amino acids 19-201); host or cells: Gold(DE3)pLysS E. coli strain (Stratagene), pMAL-c4x vector; conditions: in the presence of 1 μM retinol; read-out: HTRF assay for antagonists of RBP4-TTR interaction: IC50
# Source text: TR-FRET Assay for Retinol-Induced RBP4-TTR Interaction
# Binding of a desired RBP4 antagonist displaces retinol and induces hindrance for RBP4-TTR interaction resulting in the decreased FRET signal (FIG. 7). Bacterially expressed MBP-RBP4 and untagged TTR were used in this assay. […] Following cell lysis, recombinant RBP4 was purified from the soluble fraction using the ACTA FPLC system (GE Healthcare) equipped with the 5-ml the MBP Trap HP column. Human untagged TTR was purchased from Calbiochem. Untagged TTR was labeled directly with Eu^3+ Cryptate-NHS using the HTRF Cryptate Labeling kit from CisBio following the manufacturer's recommendations. HTRF assay was performed in white low volume 384 well plates (Greiner-Bio) in a final assay volume of 16 μl per well. The reaction buffer contained 10 mM Tris-HCl pH 7.5, 1 mM DTT, 0.05% NP-40, 0.05% Prionex, 6% glycerol, and 400 mM RE. […] Titration of test compounds in this assay was conducted in the presence of 1 μM retinol. All reactions were assembled in the dark under dim red light and incubated overnight at +4° C. wrapped in aluminum foil. TR-FRET signal was measured in the SpectraMax M5e Multimode Plate Reader (Molecular Device). Fluorescence was excited at 337 nm and two readings per well were taken: Reading 1 for time-gated energy transfer from Eu(K) to d2 (337 nm excitation, 668 nm emission, counting delay 75 microseconds, counting window 100 microseconds) and Reading 2 for Eu(K) time-gated fluorescence (337 nm excitation, 620 nm emission, counting delay 400 microseconds, counting window 400 microseconds). The TR-FRET signal was expressed as the ratio of fluorescence intensity: Flu665/Flu620×10,000.
# mice = conditions: cited from earlier work
# Abca4−/− mice = conditions: animal model of excessive bisretinoid accumulation; cited from earlier work
# RBP4-TTR interaction [3] = biological target: T2, RBP4-TTR interaction; conditions: cited from earlier work
# serum RBP4 and retinol = conditions: in vivo; cited from earlier work
# [4] = test system: retinal pigment epithelium cells; conditions: many cell types, including the retinal pigment epithelium cells; cited from earlier work
# RBP4 [5] = biological target: T1, RBP4; conditions: cited from earlier work
Structure (SMILES),IC50 (RBP4 [1]) [nM],IC50 (RBP4-TTR interaction [2]) [nM],other results
"COc1cc(C(=O)O)nc(N2C[C@H]3C[C@@H](c4ccccc4C(F)(F)F)C[C@H]3C2)n1 [Compound 62, 6-Methoxy-2-((3aR,5r,6aS)-5-(2-(trifluoromethyl)phenyl)hexahydrocyclopenta[c]pyrrol-2(1H)-yl)pyrimidine-4-carboxylic Acid]",14.3,86.7,–
"Cc1cc(NC(=O)N2C[C@H]3C[C@@H](c4ccccc4C(F)(F)F)C[C@H]3C2)c(C(=O)O)cn1 [Compound 73, 6-Methyl-4-((3aR,5r,6aS)-5-(2-(trifluoromethyl)phenyl)octahydrocyclopenta[c]pyrrole-2-carboxamido)nicotinic Acid]",23.9,–,–
"CC(C)c1cc(C(=O)O)nc(N2C[C@H]3C[C@@H](c4ccccc4C(F)(F)F)C[C@H]3C2)n1 [Compound 63, 6-Isopropyl-2-((3aR,5r,6aS)-5-(2-(trifluoromethyl)phenyl)hexahydrocyclopenta[c]pyrrol-2(1H)-yl)pyrimidine-4-carboxylic Acid]",158,203,–
"CC1=C(/C=C/C(C)=C/C=C/C(C)=C/C(=O)Nc2ccc(O)cc2)C(C)(C)CCC1 [fenretinide, N-(4-hydroxy-phenyl)retinamide]",–,–,"formation of hemangiosarcomas (mice): stimulate formation of hemangiosarcomas; A2E production (Abca4−/− mice): reduced A2E production; RBP4-TTR interaction (RBP4-TTR interaction [3]): disrupt the RBP4-TTR interaction; serum RBP4 and retinol (serum RBP4 and retinol): reduce serum RBP4 and retinol; induction of apoptosis [4]: extremely active inducer of apoptosis; binding to RBP4, displacement of all-trans retinol (RBP4 [5]): bind to RBP4"
Cc1cnc(N2C[C@H]3C[C@@H](c4ccccc4C(F)(F)F)C[C@H]3C2)nc1C(=O)O [Compound 66],90,596,–
O=C(O)c1cnc(N2C[C@H]3C[C@@H](c4ccccc4C(F)(F)F)C[C@H]3C2)nc1 [Compound 68],172,1860,–
"O=C(O)c1ccnc(N2C[C@H]3C[C@@H](c4ccccc4C(F)(F)F)C[C@H]3C2)n1 [Compound 64, 2-((3aR,5r,6aS)-5-(2-(Trifluoromethyl)phenyl)hexahydrocyclopenta[c]pyrrol-2(1H)-yl)pyrimidine-4-carboxylic Acid]",27.2,79.6,–
"O=C(O)c1cccnc1N1C[C@H]2C[C@@H](c3ccccc3C(F)(F)F)C[C@H]2C1 [Compound 71, 2-((3aR,5r,6aS)-5-(2-(Trifluoromethyl)phenyl)hexahydrocyclopenta[c]pyrrol-2(1H)-yl)nicotinic Acid]",43.8,382,–
O=C(O)c1nc(N2C[C@H]3C[C@@H](c4ccccc4C(F)(F)F)C[C@H]3C2)ncc1F [Compound 67],25.9,276,–
"Cc1cc(C(=O)O)nc(N2C[C@H]3C[C@@H](c4cc(F)ccc4C(F)(F)F)C[C@H]3C2)n1 [Compound 72, 2-((3aR,5r,6aS)-5-(5-Fluoro-2-(trifluoromethyl)phenyl)hexahydrocyclopenta[c]pyrrol-2(1H)-yl)-6-methylpyrimidine-4-carboxylic Acid]",54.3,49.2,–
"Cc1nc(N2C[C@H]3C[C@@H](c4ccccc4C(F)(F)F)C[C@H]3C2)nc(C(=O)O)c1C [Compound 74, 5,6-Dimethyl-2-((3aR,5r,6aS)-5-(2-(trifluoromethyl)phenyl)hexahydrocyclopenta[c]pyrrol-2(1H)-yl)pyrimidine-4-carboxylic Acid]",48.7,123,–
"Cc1cc(C(=O)O)cc(N2C[C@H]3C[C@@H](c4ccccc4C(F)(F)F)C[C@H]3C2)n1 [Compound 70, 2-Methyl-6-((3aR,5r,6aS)-5-(2-(trifluoromethyl)phenyl)hexahydrocyclopenta[c]pyrrol-2(1H)-yl)isonicotinic Acid]",53.2,229,–
"Cc1cc(C(=O)O)nc(N2C[C@H]3C[C@@H](c4ccccc4C(F)(F)F)C[C@H]3C2)c1 [Compound 69, 4-Methyl-6-((3aR,5r,6aS)-5-(2-(trifluoromethyl)phenyl)hexahydrocyclopenta[c]pyrrol-2(1H)-yl)picolinic Acid]",14,295,–
"O=C(O)c1cc(C(F)(F)F)nc(N2C[C@H]3C[C@@H](c4ccccc4C(F)(F)F)C[C@H]3C2)n1 [Compound 65, 6-(Trifluoromethyl)-2-((3aR,5r,6aS)-5-(2-(trifluoromethyl)phenyl)hexahydrocyclopenta[c]pyrrol-2(1H)-yl)pyrimidine-4-carboxylic Acid]",9.5,88,–
